Values quoted from earlier work, collected in patent US9241912B2, “Agrochemical formulation comprising encapsulated pesticide” (priority 2011, dated 2016).
Converted amounts (≈) assume the structure as drawn.

Settings: at 20° C.

In order of rising solubility in water:
1. CC(=O)CCCC(C)C [6-methyl-2-heptanone]  800 µg/mL (≈ 6.24 mM)
2. CCCCC(C)C(C)=O (stereo not shown) [3-methyl-2-heptanone]  900 µg/mL (≈ 7.02 mM)
3. CCC(=O)CCC(C)C [6-methyl-3-heptanone]  900 µg/mL (≈ 7.02 mM)
4. CCC(C)CCC(C)=O (stereo not shown) [5-methyl-2-heptanone]  1000 µg/mL (≈ 7.8 mM)
5. CCCCC(=O)CCC [Example 4-octanone, 4-octanone]  1000 µg/mL (≈ 7.8 mM)
6. CCCCC(=O)C(C)C [2-methyl-3-heptanone]  1400 µg/mL (≈ 10.9 mM)
7. CCC(C)C(C)C(C)=O (stereo not shown) [3,4-dimethyl-2-hexanone]  1400 µg/mL (≈ 10.9 mM)
8. CCCC(=O)CC(C)C [2-methyl-4-heptanone]  1700 µg/mL (≈ 13.3 mM)
9. CCC(C(C)=O)C(C)C (stereo not shown) [3-ethyl-4-methyl-2-pentanone]  1700 µg/mL (≈ 13.3 mM)
10. CCC(C)(CC)C(C)=O [3-ethyl-3-methyl-2-pentanone]  1800 µg/mL (≈ 14 mM)
11. CCCC(=O)C(C)CC (stereo not shown) [3-methyl-4-heptanone]  1900 µg/mL (≈ 14.8 mM)
12. CCC(=O)C(C)(C)CC [4,4-dimethyl-3-hexanone]  2500 µg/mL (≈ 19.5 mM)
13. CCCC(C)(C)C(C)=O [3,3-dimethyl-2-hexanone]  2700 µg/mL (≈ 21.1 mM)
14. CCCC(=O)C(C)(C)C [2,2-dimethyl-3-hexanone]  2800 µg/mL (≈ 21.8 mM)
15. CCCC(C)C(C)=O (stereo not shown) [3-methyl-2-hexanone]  4100 µg/mL (≈ 35.9 mM)
16. CCC(C)CC(C)=O (stereo not shown) [4-methyl-2-hexanone]  4300 µg/mL (≈ 37.7 mM)
17. CCC(CC)C(C)=O [3-ethyl-2-pentanone]  4600 µg/mL (≈ 40.3 mM)
18. CCC(=O)C(C)CC (stereo not shown) [4-methyl-3-hexanone]  5200 µg/mL (≈ 45.5 mM)
19. CCC(=O)CC(C)C [5-methyl-3-hexanone]  5200 µg/mL (≈ 45.5 mM)
20. CC(C)C(=O)C(C)(C)C [2,2,4-trimethyl-3-pentanone]  5500 µg/mL (≈ 42.9 mM)
21. CCCC(=O)C(C)C [2-methyl-3-hexanone]  6300 µg/mL (≈ 55.2 mM)
22. CC(=O)C(C)C(C)C (stereo not shown) [3,4-dimethyl-2-pentanone]  6700 µg/mL (≈ 58.7 mM)
23. CCC(C)(C)C(C)=O [3,3-dimethyl-2-pentanone]  7300 µg/mL (≈ 63.9 mM)
24. CCC(=O)C(C)(C)C [2,2-dimethyl-3-pentanone]  10400 µg/mL (≈ 91.1 mM)
25. CC(=O)CC(C)(C)C [4,4-dimethyl-2-pentanone]  10400 µg/mL (≈ 91.1 mM)
26. CCCCC(C)=O [Example 2-hexanone, 2-hexanone]  14000 µg/mL (≈ 140 mM)
27. CC1=CC(=O)CC(C)(C)C1 [isoporone]  15000 µg/mL (≈ 109 mM)

Same assay, conditions: not suitable as solvent B

For CC(C)=O [acetone], the “solubility in water (in words)” value is listed as “completely miscible with water”.
